# Patent US20250179032A1, “HETEROCYCLIC INHIBITORS OF GLUT9 FOR TREATMENT OF DISEASE” (HORIZON THERAPEUTICS IRELAND DAC, priority 2022, published 2025)
# Biological target: T1, H. sapiens SLC2A9 variant 2 (GLUT9B) (Homo sapiens, UniProt Q9NRM0)
# T1 sequence (Q9NRM0 1-511 isoform Q9NRM0-2): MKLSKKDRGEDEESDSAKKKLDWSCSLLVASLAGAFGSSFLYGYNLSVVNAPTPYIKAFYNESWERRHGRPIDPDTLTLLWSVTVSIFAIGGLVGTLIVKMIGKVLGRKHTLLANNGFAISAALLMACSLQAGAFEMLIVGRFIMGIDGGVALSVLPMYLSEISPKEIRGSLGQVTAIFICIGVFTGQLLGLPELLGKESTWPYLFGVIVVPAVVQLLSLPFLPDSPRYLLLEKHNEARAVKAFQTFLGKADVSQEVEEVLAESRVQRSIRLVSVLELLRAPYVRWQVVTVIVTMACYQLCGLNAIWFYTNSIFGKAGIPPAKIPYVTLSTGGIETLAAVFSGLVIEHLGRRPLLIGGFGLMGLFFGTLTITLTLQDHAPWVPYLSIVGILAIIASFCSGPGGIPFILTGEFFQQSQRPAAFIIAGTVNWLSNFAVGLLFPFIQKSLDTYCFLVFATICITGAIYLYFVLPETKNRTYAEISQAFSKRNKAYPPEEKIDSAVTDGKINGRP
# Assay: GLUT9 functional assay: uric acid uptake in HEK293T cells, allantoin formation by MS/MS as proxy of GLUT9B inhibition
# Type: cell-based
# Settings: 15 minute assay; HEK293T cells stably expressing GLUT9B and transiently A. oryzae uricase; uric acid 0.3 mM, 37° C.; read-out: 15 min IC50
# Description: Uric acid stocks (9 mM, Millipore-Sigma, U0881) were generated in 125 mM choline chloride (Millipore-Sigma, C7017) and the concentration was determined at 293 nm using a molar extinction coefficient of 9600 M- ^1 cm- ^1) after collecting the absorbance spectra from 220-350 nm. Allantoin stocks (12 mM Toronto Research Chemicals, A540500) were generated in LCMS grade water (Thermo Scientific, 51140). The concentration of allantoin was determined by qNMR (Michigan State University). HEK293T cells were purchased from ATCC (HEK 293T/17 SF). Hanks buffered saline salts (HBSS) was purchased from Millipore-Sigma (H6648-1L).
# SLC2A9 variant 2 was assayed in sodium gluconate buffer was composed of 125 mM sodium gluconate (TCI Chemicals, G0041-500G), 4.8 mM potassium gluconate (TCI Chemicals, G0040-500G), 1.2 mM calcium gluconate (TCI Chemicals, G0037-500G), 1.2 mM potassium phosphate (pH 7.4, Millipore-Sigma, 17835), 1.2 mM MgSO4, Millipore-Sigma, M2773-500G), 25 mM HEPES pH 7.3, (Millipore-Sigma, 54457). The final pH of the buffer was 7.4. Urate 1 was assayed in the same buffer save the pH was made to be 5.5 using 25 mM MES (pH 5.5) buffer vs 25 mM HEPES (pH 7.3) buffer.
# Human untagged clone for (untagged)-human solute carrier family 2 member 9 (SLC2A9), transcript variant (SLC2A9/NM_001001290, FIG. 1 and FIG. 2; SEQ ID NOS: 3 and 4) was purchased from Origene (Cat #SC319239). SLC2A9 variant 2 (GLUT9B) gene was amplified by PCR using the following primer to allow for the introduction of EcoR1 and Not1 sites using the primers below.
# HEK293T clonal stable cell lines containing the SLC2A9 variant 2 construct in the bicistronic pIRESpuro vector were generated using Viafect™ (Promega E4981) as per the manufactures instructions and puromycin selection (5 μg×mL^−1).
# Uric acid uptake was measured in HEK293T cells stably expressing H. sapiens SLC2A9 variant 2 (GLUT9B) and transiently expressing A. oryzae uricase. Thus, decreased allantoin formation was used as a proxy of GLUT9B inhibition. Briefly, clonal cells were plated (53,000 cells/cm^2) in DMEM with 10% FBS. Twenty-four hours later, A. oryzae uricase was transfected, and assay conducted 3 days later across a 12-point curve in buffer (in mM: 125 sodium gluconate, 4.8 potassium gluconate, 1.2 calcium gluconate, 1.2 potassium phosphate, 1.2 magnesium sulfate4, 25 HEPES; pH 7.4) with uric acid at the GLUT9B Km (0.3 mM) for 15 min or for 60 min, at 37° C. Following wash (Hanks, 37° C.), plates were sealed, incubated (5 min, RT) and cells freeze-thawed prior to lysing in water and shaking (30 min RT). Lysates were filtered through PVDF and subjected to MSMS using a 10 mM ammonium acetate-based mobile phase on a porous graphitic carbon column. Allantoin was detected in positive ion mode. Desired analyte concentrations were quantitated by integrating the area under the curve followed by a log-logistic regression model and data compared to a standard curve prepared in a matching HEK293T biological matrix.
# Mass spectrometry measurement of allantoin was completed using an Agilent RapidFire 300 coupled to a Sciex API 4000 mass spectrometer. The stationary phase was an Agilent cartridge D (hypercarb). Mobile phase A was 10 mM ammonium acetate. Mobile phase B was 5 mM ammonium acetate, 25% acetonitrile, 25% acetone. Allantoin was detected in positive ion mode with the following compound ID settings: Q1 159, Q3 115.8, DP 57, CE 12.5 Dwell 100 ms. The source settings were CAD 10, CUR 20, GS1 50, GS250 IS/NC: 5000, TEM 650, EP 10, CXP 10 where Q1 and Q3 resolution were set to low.
# Data was quantitated using Area under the curve integration was performed with the RapidFire™ Integrator (Agilent Technologies) for the desired analytes. Quantitation was completed using in a using a log-logistic regression model using allantoin in matching HEK293T biological matrix.
row,IC50,SMILES
1,> 2000 nM,"COCc1cnc(-c2cc(F)c3c(ccn3C)c2)c(N2CCC(C(=O)O)CC2)n1 [Compound 51, 1-(3-(7-fluoro-1-methyl-1H-indol-5-yl)-6-(methoxymethyl)pyrazin-2-yl)piperidine-4-carboxylic acid]"
2,< 500 nM,"COCc1cnc(-c2cc(F)c3ccn(C)c3c2)c(N2CCC(C(=O)O)CC2)n1 [Compound 52, 1-(3-(4-fluoro-1-methyl-1H-indol-6-yl)-6-(methoxymethyl)pyrazin-2-yl)piperidine-4-carboxylic acid]"
3,< 500 nM,"COCC(COC)Cc1cnc(-c2cc(F)c3occc3c2)c(N2CCC(C(=O)O)CC2)n1 [Compound 53, 1-(3-(7-Fluorobenzofuran-5-yl)-6-(3-Methoxy-2-(methoxymethyl)propyl)pyrazin-2-yl)piperidine-4-carboxylic acid]"
4,> 2000 nM,"COc1ccc(-c2nc(Cl)c(COCC(F)(F)F)nc2N2CCC(C(=O)O)CC2)cc1 [Compound 54, 1-(5-chloro-3-(4-methoxyphenyl)-6-((2,2,2-trifluoroethoxy)methyl)pyrazin-2-yl)piperidine-4-carboxylic acid]"
5,500 to 2000 nM,"COCc1cnc(-c2cc(F)c3c(c2)CCO3)c(N2CCC(C(=O)O)CC2)n1 [Compound 55, 1-(3-(7-fluoro-2,3-dihydrobenzofuran-5-yl)-6-(methoxymethyl)pyrazin-2-yl)piperidine-4-carboxylic acid]"
6,> 2000 nM,"COCc1nc(N2CCC(C(=O)O)CC2)c(-c2cc(F)c3c(ccn3C)c2)nc1Cl [Compound 56, 1-(5-chloro-3-(7-fluoro-1-methyl-1H-indol-5-yl)-6-(methoxymethyl)pyrazin-2-yl)piperidine-4-carboxylic acid]"
7,> 2000 nM,"O=C(O)C1CCN(c2nc(COCC(F)(F)F)cnc2-c2ccc3oc(F)cc3c2)CC1 [Compound 57, 1-(3-(2-fluorobenzofuran-5-yl)-6-((2,2,2-trifluoroethoxy)methyl)pyrazin-2-yl)piperidine-4-carboxylic acid]"
8,> 2000 nM,"O=C(O)C1CCN(c2nc(COCC(F)(F)F)cnc2-c2ccc(Cl)c(OC(F)(F)F)c2)CC1 [Compound 58, 1-(3-(4-chloro-3-(trifluoromethoxy)phenyl)-6-((2,2,2-trifluoroethoxy)methyl)pyrazin-2-yl)piperidine-4-carboxylic acid]"
9,< 500 nM,"O=C(O)c1c[nH]c2cc(-c3cc(COC(F)(F)F)cnc3-c3cc(F)c4occc4c3)ccc12 [Compound 59, 6-(2-(7-fluorobenzofuran-5-yl)-5-((trifluoromethoxy)methyl)pyridin-3-yl)-1H-indole-3-carboxylic acid]"
10,500 to 2000 nM,"O=C(O)C1CCN(c2nc(CCC(F)(F)F)cnc2-c2ccc3oc(F)cc3c2)CC1 [Compound 60, 1-(3-(2-fluorobenzofuran-5-yl)-6-(3,3,3-trifluoropropyl)pyrazin-2-yl)piperidine-4-carboxylic acid]"
11,< 500 nM,"O=C(O)C1CCN(c2nc(CCC(F)(F)F)cnc2-c2cc(F)c3occc3c2)CC1 [Compound 61, 1-(3-(7-Fluorobenzofuran-5-yl)-6-(3,3,3-Trifluoropropyl)Pyrazin-2-yl)piperidine-4-carboxylic acid]"
12,> 2000 nM,"COc1cc(-c2ncc(CCC(F)(F)F)nc2N2CCC(C(=O)O)CC2)ccc1Cl [Compound 62, 1-(3-(4-chloro-3-methoxyphenyl)-6-(3,3,3-trifluoropropyl)pyrazin-2-yl)piperidine-4-carboxylic acid]"
13,500 to 2000 nM,"O=C(O)c1c[nH]c2cc(-c3cc(CCC(F)(F)F)cnc3-c3cc(F)c4occc4c3)ccc12 [Compound 63, 6-(2-(7-fluorobenzofuran-5-yl)-5-(3,3,3-trifluoropropyl)pyridin-3-yl)-1H-indole-3-carboxylic acid]"
14,> 2000 nM,"O=C(O)C1CCN(c2nc(COCC(F)(F)F)cnc2-c2cnc3occc3c2)CC1 [Compound 64, 1-(3-(furo[2,3-b]pyridin-5-yl)-6-((2,2,2-trifluoroethoxy)methyl)pyrazin-2-yl)piperidine-4-carboxylic acid]"
15,< 500 nM,"Fc1cc(-c2ncc(COCC(F)(F)F)nc2N2CCC(c3nn[nH]n3)CC2)cc2ccoc12 [Compound 65, 3-(4-(2H-tetrazol-5-yl)piperidin-1-yl)-2-(7-fluorobenzofuran-5-yl)-5-((2,2,2-trifluoroethoxy)methyl)pyrazine]"
16,500 to 2000 nM,"CS(=O)(=O)NC(=O)C1CCN(c2nc(COCC(F)(F)F)cnc2-c2cc(F)c3occc3c2)CC1 [Compound 66, 1-(3-(7-fluorobenzofuran-5-yl)-6-((2,2,2-trifluoroethoxy)methyl)pyrazin-2-yl)-N-(methylsulfonyl)piperidine-4-carboxamide]"
17,> 2000 nM,"COCCOc1ccc(-c2ncc(COCC(F)(F)F)nc2N2CCC(C(=O)NS(C)(=O)=O)CC2)cc1 [Compound 67, 1-(3-(4-(2-methoxyethoxy)phenyl)-6-((2,2,2-trifluoroethoxy)methyl)pyrazin-2-yl)-N-(methylsulfonyl)piperidine-4-carboxamide]"
18,> 2000 nM,"COCCOc1ccc(-c2ncc(COCC(F)(F)F)nc2N2CCC(c3nn[nH]n3)CC2)cc1 [Compound 68, 3-(4-(2H-tetrazol-5-yl)piperidin-1-yl)-2-(4-(2-methoxyethoxy)phenyl)-5-((2,2,2-trifluoroethoxy)methyl)pyrazine]"
19,< 500 nM,"Fc1cc(-c2ncc(CCC(F)(F)F)nc2N2CCC(c3nn[nH]n3)CC2)cc2ccoc12 [Compound 69, 3-(4-(2H-tetrazol-5-yl)piperidin-1-yl)-2-(7-fluorobenzofuran-5-yl)-5-(3,3,3-trifluoropropyl)pyrazine]"
20,500 to 2000 nM,"COCCOc1ccc(-c2ncc(CCC(F)(F)F)nc2N2CCC(C(=O)NS(C)(=O)=O)CC2)cc1 [Compound 70, 1-(3-(4-(2-methoxyethoxy)phenyl)-6-(3,3,3-trifluoropropyl)pyrazin-2-yl)-N-(methylsulfonyl)piperidine-4-carboxamide]"
21,< 500 nM,"COCCOc1ccc(-c2ncc(CCC(F)(F)F)nc2N2CCC(c3nn[nH]n3)CC2)cc1 [Compound 71, 3-(4-(2H-tetrazol-5-yl)piperidin-1-yl)-2-(4-(2-methoxyethoxy)phenyl)-5-(3,3,3-trifluoropropyl)pyrazine]"
22,> 2000 nM,"O=C(O)C1CCN(c2nc(COCC(F)(F)F)cnc2-c2cnc3c(c2)CCO3)CC1 [Compound 72, 1-(3-(2,3-dihydrofuro[2,3-b]pyridin-5-yl)-6-((2,2,2-trifluoroethoxy)methyl)pyrazin-2-yl)piperidine-4-carboxylic acid]"
